Our source for the refractive index and mass density values is the NIST ThermoML archive (doi:10.1021/je300683r).

± gives the expanded uncertainty stated by the source.

Series [1] in a line: refractive index (Na D-line) (dimensionless). The settings on record: 293.15 K; 101.33 kPa; Liquid; Standard Abbe refractometry.
The conditions of series [2]: 293.15 K; 101.33 kPa; Liquid; Vibrating tube method.

As for `O` [water], in series [1], the refractive index is on record as 1.3328 ± 0.0007. For the same molecule, the mass density in series [2] is reported as 998.4 ± 1 kg/m3.

In the case of `CCO` [ethanol], the refractive index in series [1] is 1.3616 ± 0.0012. The mass density in series [2] is reported as 790 ± 1 kg/m3.

In the case of `CC(C)CO` [2-methyl-1-propanol], in series [1], the refractive index stood at 1.3955 ± 0.0008. In addition, the mass density in series [2] is 802 ± 1 kg/m3.

Consider `CC(C)CCO` [3-methylbutan-1-ol], for which, in series [1], the refractive index amounted to 1.413 ± 0.0008. The mass density in series [2] stood at 810.2 ± 1.1 kg/m3.

What is called refractive index is a measure of how strongly the sample bends light. The term mass density denotes the mass of a sample divided by its volume.
